# According to ChEMBL document CHEMBL1201862, “PubChem BioAssay data set” (2004):
#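 Following 48 hours of exposure in 96-well plates, responses at five concentrations were used to interpolate endpoints linearly. Abbreviation: GI50, concentration required for 50% inhibition of growth.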 Calls of active or inactive are those of the source. Cut-off read from the data, not from the text of the source: active = GI50 up to about 1.1 µM and inactive = higher.
# Tests used:
# Assay in all cases: inhibition of tumour cell growth, NCI panel, 48 h
# K562 = system: K562
# A498 = system: A498
# TK-10 = system: TK-10
# HCC 2998 = system: HCC 2998
# SF-539 = system: SF-539
# HOP-18 = system: HOP-18
# NCI-H23 = system: NCI-H23
# OVCAR-3 = system: OVCAR-3
# SF-268 = system: SF-268
# RPMI-8226 = system: RPMI-8226
# LXFL 529 = system: LXFL 529
# IGROV-1 = system: IGROV-1
# HCT-15 = system: HCT-15
# RXF 393 = system: RXF 393
# LOX IMVI = system: LOX IMVI
# COLO 205 = system: COLO 205
# HT-29 = system: HT-29
# 786-0 = system: 786-0
# OVCAR-8 = system: OVCAR-8
# KM12 = system: KM12
# MOLT-4 = system: MOLT-4
# M19-MEL = system: M19-MEL
# SN12C = system: SN12C
# ACHN = system: ACHN
# UO-31 = system: UO-31
# SNB-75 = system: SNB-75
# RXF 631 = system: RXF 631
# Malme-3M = system: Malme-3M
# SK-MEL-28 = system: SK-MEL-28
# SNB-19 = system: SNB-19
# HCT-116 = system: HCT-116
# EKVX = system: EKVX
# CCRF-CEM = system: CCRF-CEM
# UACC-62 = system: UACC-62
# OVCAR-4 = system: OVCAR-4
# SK-MEL-2 = system: SK-MEL-2
# DLD-1 = system: DLD-1
# SK-MEL-5 = system: SK-MEL-5
# NCI-H226 = system: NCI-H226
# UACC-257 = system: UACC-257
# NCI-H460 = system: NCI-H460
# KM-20L2 = system: KM-20L2
# M14 = system: M14
# DMS-114 = system: DMS-114
# OVCAR-5 = system: OVCAR-5
# NCI-H522 = system: NCI-H522
# HL-60 = system: HL-60
# U-251 = system: U-251
# HOP-92 = system: HOP-92
# SW-620 = system: SW-620
# HOP-62 = system: HOP-62
# SF-295 = system: SF-295
# A549 = system: A549
# XF498 = system: XF498
# SNB-78 = system: SNB-78
compound,measurement,setting,value
N#CC(C(=O)/C(=N/N)C(C#N)c1ccc(Cl)cc1)c1ccc(Cl)cc1 (stereo not given),GI50,K562,> 100 µM (inactive)
same,GI50,A498,> 100 µM (inactive)
same,GI50,TK-10,> 100 µM (inactive)
same,GI50,HCC 2998,> 100 µM (inactive)
same,GI50,SF-539,> 100 µM (inactive)
same,GI50,HOP-18,> 100 µM (inactive)
same,GI50,NCI-H23,> 100 µM (inactive)
same,GI50,OVCAR-3,> 100 µM (inactive)
same,GI50,SF-268,> 100 µM (inactive)
same,GI50,RPMI-8226,> 100 µM (inactive)
same,GI50,LXFL 529,> 100 µM (inactive)
same,GI50,IGROV-1,> 100 µM (inactive)
same,GI50,HCT-15,> 100 µM
same,GI50,RXF 393,> 100 µM (inactive)
same,GI50,LOX IMVI,> 100 µM (inactive)
same,GI50,COLO 205,> 100 µM (inactive)
same,GI50,HT-29,> 100 µM (inactive)
same,GI50,786-0,> 100 µM (inactive)
same,GI50,OVCAR-8,> 100 µM (inactive)
same,GI50,KM12,> 100 µM (inactive)
same,GI50,MOLT-4,> 100 µM (inactive)
same,GI50,M19-MEL,> 100 µM (inactive)
same,GI50,SN12C,> 100 µM (inactive)
same,GI50,ACHN,> 100 µM (inactive)
same,GI50,UO-31,> 100 µM (inactive)
same,GI50,SNB-75,> 100 µM (inactive)
same,GI50,RXF 631,> 100 µM (inactive)
same,GI50,Malme-3M,> 100 µM (inactive)
same,GI50,SK-MEL-28,> 10 µM (inactive)
same,GI50,SNB-19,> 100 µM (inactive)
same,GI50,HCT-116,> 100 µM (inactive)
same,GI50,EKVX,> 100 µM (inactive)
same,GI50,CCRF-CEM,> 100 µM (inactive)
same,GI50,UACC-62,> 100 µM (inactive)
same,GI50,OVCAR-4,> 100 µM (inactive)
same,GI50,SK-MEL-2,> 100 µM (inactive)
same,GI50,DLD-1,> 100 µM (inactive)
same,GI50,SK-MEL-5,> 100 µM (inactive)
same,GI50,NCI-H226,> 100 µM (inactive)
same,GI50,UACC-257,> 100 µM (inactive)
same,GI50,NCI-H460,> 100 µM (inactive)
same,GI50,KM-20L2,> 100 µM (inactive)
same,GI50,M14,> 100 µM (inactive)
same,GI50,DMS-114,> 100 µM (inactive)
same,GI50,OVCAR-5,> 100 µM (inactive)
same,GI50,NCI-H522,> 100 µM (inactive)
same,GI50,HL-60,> 100 µM (inactive)
same,GI50,U-251,> 100 µM (inactive)
same,GI50,HOP-92,> 100 µM (inactive)
same,GI50,SW-620,> 100 µM (inactive)
same,GI50,HOP-62,> 100 µM (inactive)
same,GI50,SF-295,> 100 µM (inactive)
same,GI50,A549,> 100 µM (inactive)
same,GI50,XF498,57.3 µM (inactive)
same,GI50,SNB-78,> 100 µM (inactive)
